# According to ChEMBL document CHEMBL1158224, “Bioactive ent-kaurene diterpenoids from Annona senegalensis” (J Nat Prod, 1996):
# What was measured:
# MCF7 = assay: Cytotoxicity against human MCF7 cells after 7 days by MTT assay; type: functional; conditions: MCF7, 168 h, read-out: ED50 (the source's name)
# PC-3 = assay: Cytotoxicity against human PC3 cells after 7 days by MTT assay; type: functional; conditions: PC-3, 168 h, read-out: ED50 (the source's name)
# A549 = assay: Cytotoxicity against human A549 cells after 7 days by MTT assay; type: functional; conditions: A549, 168 h, read-out: ED50 (the source's name)
# HT-29 = assay: Cytotoxicity against human HT29 cells after 7 days by MTT assay; type: functional; conditions: HT-29, 168 h, read-out: ED50 (the source's name)
# A498 = assay: Cytotoxicity against human A498 cells after 7 days by MTT assay; type: functional; conditions: A498, 168 h, read-out: ED50 (the source's name)
# MIA PaCa-2 = assay: Cytotoxicity against human MIAPaCa2 cells after 7 days by MTT assay; type: functional; conditions: MIA PaCa-2, 168 h, read-out: ED50 (the source's name)
# [1] = Toxicity against brine shrimp; type: organism-based; conditions: artemia, in vivo
Structure (SMILES),EC50 (MCF7) [µg/mL],EC50 (PC-3) [µg/mL],EC50 (A549) [µg/mL],EC50 (HT-29) [µg/mL],EC50 (A498) [µg/mL],EC50 (MIA PaCa-2) [µg/mL],LC50 [1] [µg/mL]
CC(=O)OC[C@@]1(OC(C)=O)C[C@@]23CC[C@H]4[C@@](C)(CCC[C@@]4(C)C(=O)O)[C@H]2CC[C@@H]1C3,> 20,17.7,,,,,
COC(=O)[C@]1(C)CCC[C@@]2(C)[C@H]3CC[C@@H]4C[C@@]3(CC[C@@H]21)C[C@@H]4C(=O)O,> 20,17.4,,,,,
COc1cccc2c1C(=O)c1c(O)c3c(c(O)c1C2=O)C[C@@](O)(C(=O)CO)C[C@@H]3O[C@H]1C[C@H](N)[C@H](O)[C@H](C)O1 [DOXORUBICIN],0.152,0.0223,0.00506,0.0437,0.01,0.00379,
C=C1C[C@@]23CC[C@H]4[C@@](C)(CCC[C@@]4(C)C(=O)O)[C@@H]2CC[C@@H]1C3 [KAURENOIC ACID],1,15.2,13.6,31.4,48,22.1,16
